Legend:
subjects with TRD = settings: single IV infusion 0.5 mg/kg; 7 subjects with TRD; cited from earlier work
[1] = in vivo; cited from earlier work
Pulse (vital signs) = test: Pulse (vital signs)
Experimental: The Investigational Medicinal Product (IMP) R(−)-ketamine hydrochloride in sterile water for intravenous injection was investigated as an […] treatment of TRD. The International Union of Pure and Applied Chemistry (IUPAC) name is of the IMP is (2R)-2-(2-chlorophenyl)-2-(methylamino)cyclohexan-1-one. Subjects received the solution at either 30 mg or 60 mg dose, or a placebo. The IMP or placebo was administered on Day 1 as a single IV infusion via an electronic infusion pump over 40 minutes. The duration of study participation for each subject was up to 29 days including a screening period, a 3-day in-clinic visit, and 2 follow-up visits. 101 subjects were enrolled in approximately 20 study centers in the EU and the US.
Tympanic or temporal temperature, heart rate, blood pressure (SBP/DBP), respiratory rate, and SpO2 were assessed. Blood pressure and pulse measurements will be assessed with a completely automated device while the subject is supine or semi-supine. Manual techniques will be used only if an automated device is not available. Blood pressure and pulse measurements should be preceded by at least 5 minutes of rest for the subject in a quiet setting without distractions (e.g., television, cell phones). An abnormal blood pressure value at screening may be repeated once after 5 minutes of relaxation to determine the subject's eligibility. Blood pressure was recorded using the same arm and position (supine or semi-supine) throughout the study, where possible. Vital signs (to be taken before blood collection for laboratory tests) consisted of 1 pulse and 3 blood pressure measurements (3 consecutive blood pressure readings will be recorded at intervals of at least 1 minute). The average of the 3 blood pressure readings was recorded in the CRF. A pulse oximeter was used to measure peripheral capillary oxygen saturation (SpO2) continuously from pre-dose until 4-hours post-dose. A pulse oximeter was clipped onto the finger or foot of the subject, and light will be sent through the finger or foot and measured on the other side.
In these tables, baseline value is defined as the last non-missing value prior to study drug administration.

healthy subjects = test system: healthy subjects
From the text: To date, there has been one clinical trial that evaluated the safety of R(−)-ketamine.

CYP3A4 = test: In vitro CYP induction
CYP1A2 = test: In vitro CYP induction
healthy volunteers = settings: up to 1 mg/kg IV or 1.8 mg/kg intramuscular; cited from earlier work

SMILES: CN[C@@]1(c2ccccc2Cl)CCCCC1=O.Cl [R(−)-ketamine, (2R)-2-(2-chlorophenyl)-2-(methylamino)cyclohexan-1-one]
- Antidepressant effects and safety profile (subjects with TRD): fast-onset and sustained antidepressant effects with a favorable safety profile
- Side effects (hyperlocomotion, prepulse inhibition deficit, drug dependence) [1]: did not
- Pulse: Mean (Pulse (vital signs); 30 mg, Day 1, 15 minutes): 69.4 beats/minute
- Pulse: Median (Pulse (vital signs); 30 mg, Day 1, 15 minutes): 70.0 beats/minute
- Pulse: Mean (Pulse (vital signs); 30 mg, Day 1, 40 minutes): 69.9 beats/minute
- Pulse: Median (Pulse (vital signs); 30 mg, Day 1, 40 minutes): 70.0 beats/minute
- Pulse: Mean (Pulse (vital signs); 30 mg, Day 1, 60 minutes): 67.2 beats/minute
- Pulse: Median (Pulse (vital signs); 30 mg, Day 1, 60 minutes): 68.5 beats/minute
- Pulse: Mean (Pulse (vital signs); 30 mg, Day 1, 2 hours): 70.7 beats/minute
- Pulse: Median (Pulse (vital signs); 30 mg, Day 1, 2 hours): 70.0 beats/minute
- Pulse: Mean (Pulse (vital signs); 30 mg, Day 1, 4 hours): 72.1 beats/minute
- Pulse: Median (Pulse (vital signs); 30 mg, Day 1, 4 hours): 72.0 beats/minute
- Pulse: Mean (Pulse (vital signs); 30 mg, Day 1, 6 hours): 70.7 beats/minute
- Pulse: Median (Pulse (vital signs); 30 mg, Day 1, 6 hours): 72.0 beats/minute
- Pulse: Mean (Pulse (vital signs); 30 mg, Day 2 - Discharge): 73.5 beats/minute
- Pulse: Median (Pulse (vital signs); 30 mg, Day 2 - Discharge): 75.0 beats/minute
- Pulse: Mean (Pulse (vital signs); 30 mg, Day 8): 74.1 beats/minute
- Pulse: Median (Pulse (vital signs); 30 mg, Day 8): 74.0 beats/minute
- Pulse: Mean (Pulse (vital signs); 30 mg, Day 15): 74.4 beats/minute
- Pulse: Median (Pulse (vital signs); 30 mg, Day 15): 75.0 beats/minute
- Pulse: Change from Baseline, Mean (Pulse (vital signs); 30 mg, to Day 1, 15 minutes): −0.4 beats/minute
- Pulse: Change from Baseline, Median (Pulse (vital signs); 30 mg, to Day 1, 15 minutes): 0.0 beats/minute
- Pulse: Change from Baseline, Mean (Pulse (vital signs); 30 mg, to Day 1, 40 minutes): −0.6 beats/minute
- Pulse: Change from Baseline, Median (Pulse (vital signs); 30 mg, to Day 1, 40 minutes): −1.0 beats/minute
- Pulse: Change from Baseline, Mean (Pulse (vital signs); 30 mg, to Day 1, 60 minutes): −2.5 beats/minute
- Pulse: Change from Baseline, Median (Pulse (vital signs); 30 mg, to Day 1, 60 minutes): −3.5 beats/minute
- Pulse: Change from Baseline, Mean (Pulse (vital signs); 30 mg, to Day 1, 2 hours): 0.2 beats/minute
- Pulse: Change from Baseline, Median (Pulse (vital signs); 30 mg, to Day 1, 2 hours): −2.0 beats/minute
- Pulse: Change from Baseline, Mean (Pulse (vital signs); 30 mg, to Day 1, 4 hours): 1.6 beats/minute
- Pulse: Change from Baseline, Median (Pulse (vital signs); 30 mg, to Day 1, 4 hours): 2.0 beats/minute
- Pulse: Change from Baseline, Mean (Pulse (vital signs); 30 mg, to Day 1, 6 hours): 0.2 beats/minute
- Pulse: Change from Baseline, Median (Pulse (vital signs); 30 mg, to Day 1, 6 hours): 1.0 beats/minute
- Pulse: Change from Baseline, Mean (Pulse (vital signs); 30 mg, to Day 2 - Discharge): 3.1 beats/minute
- Pulse: Change from Baseline, Median (Pulse (vital signs); 30 mg, to Day 2 - Discharge): 2.0 beats/minute
- Pulse: Change from Baseline, Mean (Pulse (vital signs); 30 mg, to Day 8): 2.1 beats/minute
- Pulse: Change from Baseline, Median (Pulse (vital signs); 30 mg, to Day 8): 1.0 beats/minute
- Pulse: Change from Baseline, Mean (Pulse (vital signs); 30 mg, to Day 15): 3.3 beats/minute
- Pulse: Change from Baseline, Median (Pulse (vital signs); 30 mg, to Day 15): 2.0 beats/minute
- Pulse: Mean (Pulse (vital signs); 60 mg, Day 1, 15 minutes): 67.3 beats/minute
- Pulse: Median (Pulse (vital signs); 60 mg, Day 1, 15 minutes): 66.5 beats/minute
- Pulse: Mean (Pulse (vital signs); 60 mg, Day 1, 40 minutes): 68.0 beats/minute
- Pulse: Median (Pulse (vital signs); 60 mg, Day 1, 40 minutes): 68.0 beats/minute
- Pulse: Mean (Pulse (vital signs); 60 mg, Day 1, 60 minutes): 64.9 beats/minute
- Pulse: Median (Pulse (vital signs); 60 mg, Day 1, 60 minutes): 65.0 beats/minute
- Pulse: Mean (Pulse (vital signs); 60 mg, Day 1, 2 hours): 68.2 beats/minute
- Pulse: Median (Pulse (vital signs); 60 mg, Day 1, 2 hours): 70.0 beats/minute
- Pulse: Mean (Pulse (vital signs); 60 mg, Day 1, 4 hours): 70.7 beats/minute
- Pulse: Median (Pulse (vital signs); 60 mg, Day 1, 4 hours): 72.0 beats/minute
- Pulse: Mean (Pulse (vital signs); 60 mg, Day 1, 6 hours): 72.6 beats/minute
- Pulse: Median (Pulse (vital signs); 60 mg, Day 1, 6 hours): 71.0 beats/minute
- Pulse: Mean (Pulse (vital signs); 60 mg, Day 2 - Discharge): 72.2 beats/minute
- Pulse: Median (Pulse (vital signs); 60 mg, Day 2 - Discharge): 70.0 beats/minute
- Pulse: Mean (Pulse (vital signs); 60 mg, Day 8): 73.3 beats/minute
- Pulse: Median (Pulse (vital signs); 60 mg, Day 8): 70.0 beats/minute
- Pulse: Mean (Pulse (vital signs); 60 mg, Day 15): 71.0 beats/minute
- Pulse: Median (Pulse (vital signs); 60 mg, Day 15): 69.0 beats/minute
- Pulse: Change from Baseline, Mean (Pulse (vital signs); 60 mg, to Day 1, 15 minutes): 0.0 beats/minute
- Pulse: Change from Baseline, Median (Pulse (vital signs); 60 mg, to Day 1, 15 minutes): 0.5 beats/minute
- Pulse: Change from Baseline, Mean (Pulse (vital signs); 60 mg, to Day 1, 40 minutes): −4.7 beats/minute
- Pulse: Change from Baseline, Median (Pulse (vital signs); 60 mg, to Day 1, 40 minutes): −5.0 beats/minute
- Pulse: Change from Baseline, Mean (Pulse (vital signs); 60 mg, to Day 1, 60 minutes): −2.3 beats/minute
- Pulse: Change from Baseline, Median (Pulse (vital signs); 60 mg, to Day 1, 60 minutes): −1.0 beats/minute
- Pulse: Change from Baseline, Mean (Pulse (vital signs); 60 mg, to Day 1, 2 hours): −4.5 beats/minute
- Pulse: Change from Baseline, Median (Pulse (vital signs); 60 mg, to Day 1, 2 hours): −5.0 beats/minute
- Pulse: Change from Baseline, Mean (Pulse (vital signs); 60 mg, to Day 1, 4 hours): −2.0 beats/minute
- Pulse: Change from Baseline, Median (Pulse (vital signs); 60 mg, to Day 1, 4 hours): −1.0 beats/minute
- Pulse: Change from Baseline, Mean (Pulse (vital signs); 60 mg, to Day 1, 6 hours): −0.3 beats/minute
- Pulse: Change from Baseline, Median (Pulse (vital signs); 60 mg, to Day 1, 6 hours): 0.5 beats/minute
- Pulse: Change from Baseline, Mean (Pulse (vital signs); 60 mg, to Day 2 - Discharge): −0.6 beats/minute
- Pulse: Change from Baseline, Median (Pulse (vital signs); 60 mg, to Day 2 - Discharge): −1.0 beats/minute
- Pulse: Change from Baseline, Mean (Pulse (vital signs); 60 mg, to Day 8): 0.6 beats/minute
- Pulse: Change from Baseline, Median (Pulse (vital signs); 60 mg, to Day 8): 0.0 beats/minute
- Pulse: Change from Baseline, Mean (Pulse (vital signs); 60 mg, to Day 15): −1.7 beats/minute
- Pulse: Change from Baseline, Median (Pulse (vital signs); 60 mg, to Day 15): 0.0 beats/minute
- Safety findings compared with 100 mg or 150 mg doses (healthy subjects; 30 mg and 60 mg doses): fewer transient elevations in mean systemic blood pressure, less sedation, fewer psychological or psychotic and dissociative effects, and fewer episodes of altered consciousness
- Dose level most similar to 15 mg S(+)-ketamine in terms of safety profile (healthy subjects; healthy subjects): 60 mg
- Doses with acceptable safety profiles (healthy subjects; single 40-minute IV infusions, healthy subjects): ≤ 150 mg
- CYP3A4 induction (CYP3A4): inducer
- CYP1A2 induction (CYP1A2): inducer
- Psychotomimetic and dissociative-like effects compared with S(+)-ketamine (healthy volunteers): less pronounced psychotomimetic and dissociative-like effects

Source: US20260027068A1, “METHODS OF ADM[…]-KETAMINE” (Perception Neuroscience, Inc., priority 2022, published 2026)
